From patent US20260356841A1, “HETEROCYCLIC PYRIDINONE COMPOUNDS AS TRIGGERING RECEPTOR EXPRESSED ON MYELOID CELLS 2 AGONISTS AND METHODS OF USE” (Vigil Neuroscience, Inc., priority 2023, published 2026)

What follows are compounds tested against T1, human TREM2 (Homo sapiens, UniProt Q9NZC2) (assay: TREM2 agonist potency by cellular phosphorylation of Spleen Tyrosine Kinase (Syk), AlphaLisa, HEK293T-hTREM2 cells). Details: not given.
T1 construct: expressed in transfected cells; host or cells: HEK293T (HEK293T-hTREM2 cells)
Type: cell-based
How it was run: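 HEK293T cells co-expressing human TREM2 and DAP12, plated 20–24 h before use. Compounds applied 45 min at room temperature in assay buffer, then cells lysed and phospho-Syk quantified by AlphaLisa. Percent activation from a standard curve; EC50 from a four-parameter variable-slope fit.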

T1 sequence (Q9NZC2 19-230): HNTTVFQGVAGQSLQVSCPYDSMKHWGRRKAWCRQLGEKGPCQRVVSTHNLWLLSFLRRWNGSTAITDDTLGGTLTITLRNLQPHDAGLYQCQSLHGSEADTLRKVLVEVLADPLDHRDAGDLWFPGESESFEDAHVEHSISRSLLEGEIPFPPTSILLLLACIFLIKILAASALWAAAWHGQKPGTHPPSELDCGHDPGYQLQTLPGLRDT
T1 sequence (O43914 22-113 partner): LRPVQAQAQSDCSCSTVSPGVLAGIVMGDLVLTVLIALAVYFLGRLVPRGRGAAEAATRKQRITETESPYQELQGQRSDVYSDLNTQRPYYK

Cc1cc2c(-c3ccc(F)cc3F)nc(N3C[C@@H](C)O[C@@H](c4ccc(=O)n(C)c4)C3)cc2nc1C [Example 196, 5-((2S,6R)-4-(5-(2,4-difluorophenyl)-2,3-dimethyl-1,6-naphthyridin-7-yl)-6-methylmorpholin-2-yl)-1-methylpyridin-2 (1H)-one] and [2H]C([2H])([2H])C([2H])(n1cc([C@H]2C[C@@H](c3nc(C45CC(C(F)(F)F)(C4)C5)c4nc(C)c(C)nc4n3)CCO2)ccc1=O)C([2H])([2H])[2H] [Example 88, 5-[(2R,4S)-4-[6,7-dimethyl-4-[3-(trifluoromethyl)-1-bicyclo[1.1.1]pentanyl]pteridin-2-yl]tetrahydropyran-2-yl]-1-[1,2,2,2-tetradeuterio-1-(trideuteriomethyl)ethyl]pyridin-2-one] cannot be ordered by EC50: under 100 nM for the first, under 100 nM for the second.

Same assay, conditions: hTREM2 EC50 Data (HEK293 Cells); Syk phosphorylation, AlphaLisa; read-out: hTREM2 EC50

Cc1nc2nc([C@H]3CCO[C@@H](c4ccc(=O)n(C)c4)C3)nc(C34CC(C(F)F)(C3)C4)c2nc1C [Example 31, 5-[(2R,4S)-4-[4-[3-(difluoromethyl)-1-bicyclo[1.1.1]-pentanyl]-6,7-dimethyl-pteridin-2-yl]-tetrahydropyran-2-yl]-1-methyl-pyridin-2-one] and Cc1nc2nc([C@@H]3CCO[C@H](c4ccc(=O)n(C)c4)C3)nc(C34CC(C(F)(F)F)(C3)C4)c2nc1C [Example 26, 5-[(2S,4R)-4-[6,7-dimethyl-4-[3-(trifluoromethyl)-1-bicyclo[1.1.1]-pentanyl]pteridin-2-yl]tetrahydropyran-2-yl]-1-methyl-pyridin-2-one] cannot be ordered by EC50: under 100 nM for the first, under 100 nM for the second.

COc1nc2c(C3CCC(F)(F)CC3)nc([C@H]3CCO[C@@H](c4ccc(=O)n(C)c4)C3)nc2nc1C [Example 138, 5-[(2R,4S)-4-[4-(4,4-difluorocyclohexyl)-6-methoxy-7-methyl-pteridin-2-yl]tetrahydropyran-2-yl]-1-methyl-pyridin-2-one] and Cc1nc2nc([C@H]3CCO[C@@H](c4ccc(=O)n(C)c4)C3)nc(C3CCC(F)(F)CC3)c2nc1C [Example 28, 5-((2R,4S)-4-(4-(4,4-difluorocyclohexyl)-6,7-dimethylpteridin-2-yl)tetrahydro-2H-pyran-2-yl)-1-methylpyridin-2 (1H)-one] cannot be ordered by EC50: under 100 nM for the first, under 100 nM for the second.

Cc1nc2nc([C@H]3CCO[C@@H](c4ccc(=O)n(C)c4)C3)nc(C34CC(C(C)(C)F)(C3)C4)c2nc1C [Example 52, 5-[(2R,4S)-4-[4-[3-(1-fluoro-1-methyl-ethyl)-1-bicyclo[1.1.1]pentanyl]-6,7-dimethyl-pteridin-2-yl]tetrahydropyran-2-yl]-1-methyl-pyridin-2-one] and Cc1nc2nc([C@@H]3CCO[C@H](c4ccc(=O)n(C(C)C)c4)C3)nc(C34CC(C(F)(F)F)(C3)C4)c2nc1C [Example 78, 1-isopropyl-5-[(2S,4R)-4-[6,7-dimethyl-4-[3-(trifluoromethyl)-1-bicyclo[1.1.1]-pentanyl]pteridin-2-yl]tetrahydropyran-2-yl]pyridin-2-one] cannot be ordered by EC50: under 100 nM for the first, under 100 nM for the second.

Cc1nc2nc([C@H]3CCO[C@@H](c4ccc(=O)n(-c5cnco5)c4)C3)nc(C34CC(C(F)(F)F)(C3)C4)c2nc1C [Example 116, 5-((2R,4S)-4-(6,7-dimethyl-4-(3-(trifluoromethyl)-bicyclo-[1.1.1]pentan-1-yl)pteridin-2-yl)tetrahydro-2H-pyran-2-yl)-1-(oxazol-5-yl)pyridin-2(1H)-one] and Cc1nc2nc([C@H]3CCO[C@@H](c4ccc(=O)n(-c5cscn5)c4)C3)nc(C34CC(C(F)(F)F)(C3)C4)c2nc1C [Example 110, 5-((2R,4S)-4-(6,7-dimethyl-4-(3-(trifluoromethyl)bicyclo[1.1.1]pentan-1-yl)pteridin-2-yl)tetrahydro-2H-pyran-2-yl)-1-(thiazol-4-yl)pyridin-2(1H)-one] cannot be ordered by EC50: under 100 nM for the first, under 100 nM for the second.

Cc1nc2nc([C@@H]3CCO[C@@H](c4ccc(=O)n(C)c4)C3)nc(-c3ccc(Cl)cc3F)c2nc1C (racemic) [Example 9, 1-methyl-5-[rac-(2R,4R)-4-[4-(4-chloro-2-fluoro-phenyl)-6,7-dimethyl-pteridin-2-yl]tetrahydropyran-2-yl]pyridin-2-one] and COc1nc2c(-c3ccc(C(F)(F)F)cc3F)nc(C3CCOC(c4ccc(=O)n(C)c4)C3)nc2nc1C (stereo not shown) [Example 131] cannot be ordered by EC50: under 100 nM for the first, under 100 nM for the second.

First: C[C@@H]1CN(c2nc(-c3ccc(F)cc3F)c3sc(N(C)C)nc3n2)C[C@H](c2ccc(=O)n(N)c2)O1 [Example 174, 1-amino-5-[(2S,6R)-4-[7-(2,4-difluorophenyl)-2-(dimethylamino)thiazolo[4,5-d]pyrimidin-5-yl]-6-methyl-morpholin-2-yl]pyridin-2-one]
Second: CN(C)c1nc2nc([C@H]3CCO[C@@H](c4ccc(=O)n(C)c4)C3)nc(-c3ccc(F)cc3F)c2s1 [Example 13, 5-[(2R,4S)-4-[7-(2,4-difluorophenyl)-2-(dimethylamino)thiazolo[4,5-d]pyrimidin-5-yl]tetrahydropyran-2-yl]-1-methyl-pyridin-2-one]
The EC50 of the first is lower: under 100 nM for the first, 100 to 500 nM for the second. The first is the more potent here.

Cc1nc2nc(N3C[C@@H](C)O[C@@H](c4ccc(=O)n(C)c4)C3)nc(-c3cnc(C4CC4)s3)c2nc1C [Example 21, 5-[(2S,6R)-4-[4-(2-cyclopropylthiazol-5-yl)-6,7-dimethyl-pteridin-2-yl]-6-methyl-morpholin-2-yl]-1-methyl-pyridin-2-one] and Cc1nc2nc(N3CCC(F)(F)C(c4ccc(=O)n(C)c4)C3)nc(-c3ccc(F)cc3F)c2nc1C (stereo not shown) [Example 190, 5-[1-[4-(2,4-difluorophenyl)-6,7-dimethyl-pteridin-2-yl]-4,4-difluoro-3-piperidyl]-1-methyl-pyridin-2-one] cannot be ordered by EC50: under 100 nM for the first, under 100 nM for the second.

[2H]C([2H])([2H])c1nc2nc(N3C[C@@H](C)O[C@@H](c4ccc(=O)n(C5CC5)c4)C3)nc(C34CC(C(F)(F)F)(C3)C4)c2nc1C([2H])([2H])[2H] [Example 182, 5-[(2S,6R)-4-[6,7-bis(methyl-d3)-4-[3-(trifluoromethyl)-1-bicyclo[1.1.1]pentan-1-yl]pteridin-2-yl]-6-methyl-morpholin-2-yl]-1-cyclopropylpyridin-2(1H)-one] and [2H]C([2H])([2H])c1nc2nc(C3CCOC(c4ccc(=O)n(C([2H])([2H])[2H])c4)C3)nc(C34CC(C(F)(F)F)(C3)C4)c2nc1C([2H])([2H])[2H] (stereo not shown) [Example 353] cannot be ordered by EC50: under 100 nM for the first, under 100 nM for the second.

Cc1nc2nc([C@H]3CCO[C@H](c4cnc(=O)n(C)c4)C3)nc(C34CC(C(F)(F)F)(C3)C4)c2nc1C [Example 163, 1-methyl-5-[(2S,4S)-4-[6,7-dimethyl-4-[3-(trifluoromethyl)-1-bicyclo[1.1.1]pentanyl]pteridin-2-yl]tetrahydropyran-2-yl]pyrimidin-2-one] and Cc1nc(-n2cc([C@H]3C[C@@H](c4nc(C56CC(C(F)(F)F)(C5)C6)c5nc(C)c(C)nc5n4)CCO3)ccc2=O)cs1 [Example 114, 5-((2R,4S)-4-(6,7-dimethyl-4-(3-(trifluoro-methyl)bicyclo[1.1.1]pentan-1-yl)pteridin-2-yl)tetrahydro-2H-pyran-2-yl)-1-(2-methyl-thiazol-4-yl)pyridin-2(1H)-one] cannot be ordered by EC50: under 100 nM for the first, under 100 nM for the second.

Compared with Cc1nc2nc([C@@H]3CCO[C@H](c4ccc(=O)n(C)c4)C3)cc(C34CC(C(F)(F)F)(C3)C4)c2nc1C [Example 168, 1-methyl-5-[(2S,4R)-4-[2,3-dimethyl-8-[3-(trifluoromethyl)-1-bicyclo[1.1.1]pentanyl]pyrido[2,3-b]pyrazin-6-yl]tetrahydropyran-2-yl]pyridin-2-one], Cc1cnc2nc([C@H]3CCO[C@@H](c4ccc(=O)n(C)c4)C3)nc(C34CC(C(F)(F)F)(C3)C4)c2n1 [Example 198, 1-methyl-5-((2R,4S)-4-(6-methyl-4-(3-(trifluoromethyl)bicyclo[1.1.1]pentan-1-yl)pteridin-2-yl)tetrahydro-2H-pyran-2-yl)pyridin-2(1H)-one] is higher in EC50: under 100 nM for the first, 100 to 500 nM for the second. The first is the more potent here.

Cc1nc2nc([C@H]3CCO[C@@H](c4ccc(=O)[nH]c4)C3)nc(C34CC(C(F)(F)F)(C3)C4)c2nc1C(F)(F)F [Example 355] and [2H]C([2H])([2H])n1cc([C@H]2C[C@@H](c3nc(C45CC(C(F)(F)F)(C4)C5)c4cc(C(F)(F)F)c(C)nc4n3)CCO2)ccc1=O [Example 334, 1-(methyl-d3)-5-((2R,4S)-4-(7-methyl-6-(trifluoromethyl)-4-(3-(trifluoromethyl)bicyclo[1.1.1]pentan-1-yl)pyrido[2,3-d]pyrimidin-2-yl)tetrahydro-2H-pyran-2-yl)pyridin-2(1H)-one] cannot be ordered by EC50: under 100 nM for the first, under 100 nM for the second.

CN(C)c1nc2nc([C@H]3CCO[C@@H](c4ccc(=O)n(C)c4)C3)nc(C34CC(C(F)(F)F)(C3)C4)c2n1C [Example 202, 5-((2R,4S)-4-(8-(dimethylamino)-7-methyl-6-(3-(trifluoromethyl)bicyclo[1.1.1]pentan-1-yl)-7H-purin-2-yl)tetrahydro-2H-pyran-2-yl)-1-methylpyridin-2 (1H)-one] and Cc1nc2nc([C@H]3CCO[C@@H](c4ccc(=O)n(C)c4)C3)nc(-c3ccc(C(F)(F)F)cc3F)c2nc1C(F)F [Example 126, 5-[(2R,4S)-4-[6-(difluoromethyl)-4-[2-fluoro-4-(trifluoromethyl)phenyl]-7-methyl-pteridin-2-yl]tetrahydropyran-2-yl]-1-methyl-pyridin-2-one] fall in the same range of EC50: 100 to 500 nM for the first, 100 to 500 nM for the second.

Compared with COc1nc2c(-c3ccc(C(F)(F)F)cc3F)nc([C@H]3CCO[C@@H](c4ccc(=O)n(C5CC5)c4)C3)nc2nc1C [Example 134, 1-cyclopropyl-5-[(2R,4S)-4-[4-[2-fluoro-4-(trifluoromethyl)phenyl]-6-methoxy-7-methyl-pteridin-2-yl]tetrahydropyran-2-yl]pyridin-2-one], Cc1nc2cc(C3CCO[C@@H](c4ccc(=O)n(C)c4)C3)nc(-c3ccc(F)cc3F)c2nc1C (stereo partly shown) [Example 194, 5-(4-(5-(2,4-difluorophenyl)-2,3-dimethylpyrido[3,4-b]pyrazin-7-yl)tetrahydro-2H-pyran-2-yl)-1-methylpyridin-2 (1H)-one] is higher in EC50: under 100 nM for the first, 100 to 500 nM for the second. The first is the more potent here.
